Experimental data taken from paper PMC4770715, “LIM kinase inhibitors disrupt mitotic microtubule organization and impair tumor cell proliferation” (Oncotarget, 2015).

Experiments:
Test in all cases: biochemical
Set-up in all cases: KINOMEscan active-site competition binding, percent of control (100 = no competition)
Conditions in all cases: competition binding, percent control
EGFR(G719S) = EGFR(G719S) (Homo sapiens, UniProt P00533, G719S)
CASK = CASK (Homo sapiens, UniProt O14936)
ITK = ITK (Homo sapiens, UniProt Q08881)
PIK3CA(E542K) = PIK3CA(E542K) (Homo sapiens, UniProt P42336, E542K)
TAOK1 = TAOK1 (Homo sapiens, UniProt Q7L7X3)
Sequence of TAOK1 (Q7L7X3 whole entry): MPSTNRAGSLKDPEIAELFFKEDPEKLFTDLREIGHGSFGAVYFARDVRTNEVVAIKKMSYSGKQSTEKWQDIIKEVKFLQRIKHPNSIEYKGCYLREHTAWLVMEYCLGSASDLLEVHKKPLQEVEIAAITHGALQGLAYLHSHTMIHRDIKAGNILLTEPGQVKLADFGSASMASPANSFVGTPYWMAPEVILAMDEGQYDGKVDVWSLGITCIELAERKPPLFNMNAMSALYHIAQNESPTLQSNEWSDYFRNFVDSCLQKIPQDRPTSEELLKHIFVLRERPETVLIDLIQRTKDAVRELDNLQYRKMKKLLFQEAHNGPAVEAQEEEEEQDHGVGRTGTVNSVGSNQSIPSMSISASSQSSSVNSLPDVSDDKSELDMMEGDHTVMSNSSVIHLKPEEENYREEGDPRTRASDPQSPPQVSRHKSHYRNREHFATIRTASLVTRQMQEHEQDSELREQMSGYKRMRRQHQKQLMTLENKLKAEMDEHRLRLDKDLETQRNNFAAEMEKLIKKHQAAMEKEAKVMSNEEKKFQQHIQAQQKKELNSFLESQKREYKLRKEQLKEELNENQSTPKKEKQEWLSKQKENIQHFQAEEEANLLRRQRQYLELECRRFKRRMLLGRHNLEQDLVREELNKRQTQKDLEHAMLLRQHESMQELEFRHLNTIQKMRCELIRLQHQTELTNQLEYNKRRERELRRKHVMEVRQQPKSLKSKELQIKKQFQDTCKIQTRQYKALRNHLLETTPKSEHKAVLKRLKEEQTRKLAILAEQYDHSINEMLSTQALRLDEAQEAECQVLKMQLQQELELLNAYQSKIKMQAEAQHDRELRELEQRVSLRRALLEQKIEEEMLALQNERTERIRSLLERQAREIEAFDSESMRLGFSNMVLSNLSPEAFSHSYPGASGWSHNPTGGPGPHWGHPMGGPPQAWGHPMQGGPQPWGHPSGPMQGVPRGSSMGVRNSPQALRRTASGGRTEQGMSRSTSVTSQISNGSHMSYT

CLK2 = CLK2 (Homo sapiens, UniProt P49760)
INSR = INSR (Homo sapiens, UniProt P06213)
YSK1 = target: T1, YSK1 (Homo sapiens, UniProt O00506)
T1 construct: gene STK25

MAPKAPK2 = MAPKAPK2 (Homo sapiens, UniProt P49137)
RIOK1 = RIOK1 (Homo sapiens, UniProt Q9BRS2)
Sequence of RIOK1 (Q9BRS2 whole entry): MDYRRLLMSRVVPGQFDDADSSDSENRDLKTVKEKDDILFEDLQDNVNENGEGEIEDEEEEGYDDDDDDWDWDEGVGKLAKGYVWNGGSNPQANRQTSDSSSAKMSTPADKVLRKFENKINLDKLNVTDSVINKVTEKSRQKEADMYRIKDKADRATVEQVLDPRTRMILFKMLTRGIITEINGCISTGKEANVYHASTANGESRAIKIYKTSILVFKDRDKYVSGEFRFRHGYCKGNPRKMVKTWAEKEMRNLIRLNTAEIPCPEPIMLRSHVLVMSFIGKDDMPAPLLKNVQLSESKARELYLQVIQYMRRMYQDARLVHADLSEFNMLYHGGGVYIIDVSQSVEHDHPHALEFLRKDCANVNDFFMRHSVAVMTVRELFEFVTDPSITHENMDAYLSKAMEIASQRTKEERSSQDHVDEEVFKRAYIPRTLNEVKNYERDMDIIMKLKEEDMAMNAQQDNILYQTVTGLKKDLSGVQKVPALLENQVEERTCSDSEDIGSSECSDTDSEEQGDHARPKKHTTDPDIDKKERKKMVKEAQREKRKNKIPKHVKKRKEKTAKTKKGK

TGFBR1 = TGFBR1 (Homo sapiens, UniProt P36897)
ULK2 = ULK2 (Homo sapiens, UniProt Q8IYT8)
ANKK1 = ANKK1 (Homo sapiens, UniProt Q8NFD2)
MLK2 = target: T2, MLK2 (Homo sapiens, UniProt Q02779)
T2 construct: gene MAP3K10

p38-alpha = target: T3, p38-alpha (Homo sapiens, UniProt Q16539)
T3 construct: gene MAPK14

MYO3B = MYO3B (Homo sapiens, UniProt Q8WXR4)
EPHA1 = EPHA1 (Homo sapiens, UniProt P21709)
EPHB1 = EPHB1 (Homo sapiens, UniProt P54762)
RIPK5 = target: T4, RIPK5 (Homo sapiens, UniProt Q6XUX3)
T4 construct: gene DSTYK

TESK1 = TESK1 (Homo sapiens, UniProt Q15569)
EGFR(S752-I759del) = EGFR(S752-I759del) (Homo sapiens, UniProt P00533, DEL752-759)
Sequence of EGFR(S752-I759del) (P00533 with tags, fused parts or gaps DEL752-759): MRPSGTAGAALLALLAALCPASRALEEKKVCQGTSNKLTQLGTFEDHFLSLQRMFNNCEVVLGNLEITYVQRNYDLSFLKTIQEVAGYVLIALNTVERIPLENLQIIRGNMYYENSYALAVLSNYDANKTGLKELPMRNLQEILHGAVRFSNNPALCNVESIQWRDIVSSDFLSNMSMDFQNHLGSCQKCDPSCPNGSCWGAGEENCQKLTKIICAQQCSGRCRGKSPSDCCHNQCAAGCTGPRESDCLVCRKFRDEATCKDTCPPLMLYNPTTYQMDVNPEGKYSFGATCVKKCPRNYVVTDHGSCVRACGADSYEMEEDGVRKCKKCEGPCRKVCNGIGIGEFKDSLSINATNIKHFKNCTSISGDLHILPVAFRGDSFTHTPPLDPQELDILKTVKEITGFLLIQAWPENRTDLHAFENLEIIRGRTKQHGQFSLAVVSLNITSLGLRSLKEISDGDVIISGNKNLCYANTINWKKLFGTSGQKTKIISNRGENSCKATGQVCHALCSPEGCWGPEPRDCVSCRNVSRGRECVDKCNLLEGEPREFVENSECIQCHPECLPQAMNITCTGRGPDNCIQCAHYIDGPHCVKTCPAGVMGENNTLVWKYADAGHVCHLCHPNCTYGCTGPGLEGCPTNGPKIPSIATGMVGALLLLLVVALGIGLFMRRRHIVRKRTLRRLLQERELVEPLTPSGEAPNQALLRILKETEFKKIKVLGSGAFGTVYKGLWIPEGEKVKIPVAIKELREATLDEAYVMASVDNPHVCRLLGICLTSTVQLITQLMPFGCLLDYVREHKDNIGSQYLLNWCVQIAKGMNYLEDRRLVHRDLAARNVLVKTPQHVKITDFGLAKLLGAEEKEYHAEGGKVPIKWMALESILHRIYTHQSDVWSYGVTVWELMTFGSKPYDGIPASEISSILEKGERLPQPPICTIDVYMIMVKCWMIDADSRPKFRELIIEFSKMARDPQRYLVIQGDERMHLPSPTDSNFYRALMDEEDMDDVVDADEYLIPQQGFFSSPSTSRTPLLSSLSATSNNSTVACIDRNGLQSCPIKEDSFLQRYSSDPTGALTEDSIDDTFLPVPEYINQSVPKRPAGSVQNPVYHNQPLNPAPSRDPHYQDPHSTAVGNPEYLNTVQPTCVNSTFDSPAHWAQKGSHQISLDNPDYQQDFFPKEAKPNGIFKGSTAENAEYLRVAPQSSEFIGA

CSNK2A2 = CSNK2A2 (Homo sapiens, UniProt P19784)
EPHA6 = EPHA6 (Homo sapiens, UniProt Q9UF33)

Sequence of EGFR(G719S) (P00533 whole entry G719S): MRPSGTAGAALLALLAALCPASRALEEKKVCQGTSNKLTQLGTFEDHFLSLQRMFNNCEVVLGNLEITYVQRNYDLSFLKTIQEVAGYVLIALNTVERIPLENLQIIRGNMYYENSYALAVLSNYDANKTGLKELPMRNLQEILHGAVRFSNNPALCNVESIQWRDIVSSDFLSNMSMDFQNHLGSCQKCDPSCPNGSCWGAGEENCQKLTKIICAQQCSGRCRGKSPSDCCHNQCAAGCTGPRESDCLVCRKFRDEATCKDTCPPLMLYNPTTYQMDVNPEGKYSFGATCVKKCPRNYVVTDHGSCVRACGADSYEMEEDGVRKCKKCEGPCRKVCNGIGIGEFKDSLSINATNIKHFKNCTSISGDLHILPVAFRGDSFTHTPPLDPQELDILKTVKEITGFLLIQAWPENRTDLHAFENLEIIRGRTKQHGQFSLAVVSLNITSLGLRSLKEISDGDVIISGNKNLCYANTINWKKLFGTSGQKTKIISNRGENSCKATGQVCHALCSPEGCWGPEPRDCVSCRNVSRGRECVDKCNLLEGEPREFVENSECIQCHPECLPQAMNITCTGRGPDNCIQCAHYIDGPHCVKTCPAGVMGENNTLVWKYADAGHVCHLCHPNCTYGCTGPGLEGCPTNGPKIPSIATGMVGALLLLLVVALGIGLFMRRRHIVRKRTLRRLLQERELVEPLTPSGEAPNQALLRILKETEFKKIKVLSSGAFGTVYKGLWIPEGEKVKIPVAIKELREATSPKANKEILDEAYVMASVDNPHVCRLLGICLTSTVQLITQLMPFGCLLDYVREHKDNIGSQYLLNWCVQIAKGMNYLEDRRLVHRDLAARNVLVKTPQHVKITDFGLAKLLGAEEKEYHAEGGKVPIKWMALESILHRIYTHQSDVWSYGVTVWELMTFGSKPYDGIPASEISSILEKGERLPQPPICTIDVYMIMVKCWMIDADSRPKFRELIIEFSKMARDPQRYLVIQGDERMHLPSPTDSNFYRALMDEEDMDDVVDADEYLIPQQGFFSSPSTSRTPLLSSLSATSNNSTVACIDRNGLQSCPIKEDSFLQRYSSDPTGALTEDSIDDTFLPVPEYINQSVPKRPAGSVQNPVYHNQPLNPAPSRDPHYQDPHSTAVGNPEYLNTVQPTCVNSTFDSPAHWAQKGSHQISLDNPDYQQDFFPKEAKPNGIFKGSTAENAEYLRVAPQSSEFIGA
Sequence of CASK (O14936 whole entry): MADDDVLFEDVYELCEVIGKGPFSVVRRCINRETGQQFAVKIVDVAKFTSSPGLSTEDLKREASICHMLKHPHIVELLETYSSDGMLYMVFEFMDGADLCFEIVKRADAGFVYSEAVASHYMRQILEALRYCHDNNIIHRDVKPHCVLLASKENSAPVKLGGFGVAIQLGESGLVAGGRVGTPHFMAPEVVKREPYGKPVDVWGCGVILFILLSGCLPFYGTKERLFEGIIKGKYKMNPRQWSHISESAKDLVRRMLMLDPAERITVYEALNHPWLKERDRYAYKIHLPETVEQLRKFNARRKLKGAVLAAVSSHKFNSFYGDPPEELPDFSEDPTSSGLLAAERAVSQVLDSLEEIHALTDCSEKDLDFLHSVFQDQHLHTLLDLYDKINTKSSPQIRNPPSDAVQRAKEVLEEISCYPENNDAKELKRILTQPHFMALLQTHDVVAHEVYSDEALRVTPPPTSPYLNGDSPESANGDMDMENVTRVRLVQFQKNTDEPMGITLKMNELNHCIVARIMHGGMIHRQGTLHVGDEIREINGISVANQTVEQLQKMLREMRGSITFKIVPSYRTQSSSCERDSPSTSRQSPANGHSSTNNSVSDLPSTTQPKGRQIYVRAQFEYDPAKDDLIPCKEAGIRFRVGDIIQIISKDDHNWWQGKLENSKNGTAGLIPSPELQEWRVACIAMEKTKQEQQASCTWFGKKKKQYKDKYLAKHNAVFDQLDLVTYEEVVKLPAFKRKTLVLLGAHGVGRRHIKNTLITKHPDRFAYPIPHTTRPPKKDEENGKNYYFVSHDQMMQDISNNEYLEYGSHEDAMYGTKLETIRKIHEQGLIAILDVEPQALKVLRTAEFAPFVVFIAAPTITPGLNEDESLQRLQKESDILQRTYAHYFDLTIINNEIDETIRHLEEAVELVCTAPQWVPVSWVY

Row | SMILES | remaining binding at 10 µM (EGFR(G719S)) [%] | remaining binding at 10 µM (CASK) [%] | remaining binding at 10 µM (ITK) [%] | remaining binding at 10 µM (PIK3CA(E542K)) [%] | remaining binding at 10 µM (TAOK1) [%] | remaining binding at 10 µM (CLK2) [%] | remaining binding at 10 µM (INSR) [%] | remaining binding at 10 µM (YSK1) [%] | remaining binding at 10 µM (MAPKAPK2) [%] | remaining binding at 10 µM (RIOK1) [%] | remaining binding at 10 µM (TGFBR1) [%] | remaining binding at 10 µM (ULK2) [%] | remaining binding at 10 µM (ANKK1) [%] | remaining binding at 10 µM (MLK2) [%] | remaining binding at 10 µM (p38-alpha) [%] | remaining binding at 10 µM (MYO3B) [%] | remaining binding at 10 µM (EPHA1) [%] | remaining binding at 10 µM (EPHB1) [%] | remaining binding at 10 µM (RIPK5) [%] | remaining binding at 10 µM (TESK1) [%] | other results
1 | COc1ccc(-c2cnccc2-c2cnc(NC(=O)C(C)C)s2)c(C(F)(F)F)c1 [CRT0105446, N-{5-[3-(4-Methoxy-2-trifluoromethyl-phenyl)-pyridin-4-yl]-hiazol-2-yl}-isobutyramide] | 94 | 1.2 | 100 | 100 | 93 | 78 | 100 | 100 | 100 | 97 | 99 | 100 | 99 | 69 | 93 | 100 | 100 | 88 | 86 | 96 | remaining binding at 10 µM (EGFR(S752-I759del)): 84%; remaining binding at 10 µM (CSNK2A2): 91%; remaining binding at 10 µM (EPHA6): 86%
2 | Cc1ccc(-c2cnccc2-c2cnc(Nc3ccc(O)cc3)s2)c(Cl)c1 [CRT0105950, 4-{5-[3-(2-Chloro-4-methyl-phenyl)-pyridin-4-yl]-thiazol-2-ylamino}-phenol] | 75 | 13 | 61 | 100 | 17 | 0.45 | 1 | 22 | 100 | 65 | 74 | 20 | 69 | 40 | 87 | 90 | 74 | 80 | 45 | 20 | remaining binding at 10 µM (EGFR(S752-I759del)): 69%; remaining binding at 10 µM (CSNK2A2): 58%; remaining binding at 10 µM (EPHA6): 30%
